The values below are quoted from earlier work in publication PMC10812672, “Short Antimicrobial Peptide Derived from the Venom Gland Transcriptome of Pamphobeteus verdolaga Increases Gentamicin Susceptibility of Multidrug-Resistant Klebsiella pneumoniae” (Antibiotics, 2023).

The test system of series [1] is S. aureus. The note with it: custom database compiled from public databases and PubMed; averaged where multiple reports; cited from earlier work. An excerpt: (§1) Agelaia-CP Agelaia pallipes […] […] 13 1 4.00 1.25 s IsCT [EK7. GP8. Opisthacanthus SK11] madagascariensi […] 13 4 2.00 1.17 s Opisthacanthus IsCT [EK7] madagascariensi […] 13 3 2.00 1.00 s Opisthacanthus IsCT [WL6. SK11 ] madagascariensi ILGKILKGIKKLF 13 4 2.00 2.00 s Opisthacanth ... || (+ 2 further places)

In series [2] the test system is E. coli. The note with it: custom database compiled from public databases and PubMed; averaged where multiple reports; cited from earlier work.
Text: as §1

Take “ACHAHCQSVGRRGGYCGNFRMTCYCY [Midgut defensin G2, cDB AMP; Haemaphysalis longicornis]”: the “MIC S. aureus” value in series [1] is 5.09 µM. The “MIC E. coli” value in series [2] is listed as 5.94 µM.
“ACQFWSCNSSCISRGYRQGYCWGIQYKYCQCQ [Defensin-1, cDB AMP; Centruroides limpidus limpidus]”: the “MIC S. aureus” value in series [1] was 13.08 µM. For the same sequence, in series [2], the “MIC E. coli” value was 13.08 µM.
With “CRRLCYKQRCVTYCRGR [Gomesin, cDB AMP; Acanthoscurria gomesiana]”, the “MIC S. aureus” value in series [1] is listed as 12.10 µM. In addition, in series [2], the “MIC E. coli” value was 0.80 µM.
Consider “FFGSLLSLGSKLLPSVFKLFQRKKE [Css54, cDB AMP; Centruroides suffusus suffusus]”, for which the “MIC S. aureus” value in series [1] is reported as 4.35 µM. Further, in series [2], the “MIC E. coli” value is on record as 4.35 µM.
As to “FIGAIARLLSKIFGKR [Bmkn2, cDB AMP; Mesobuthus martensii]”, the “MIC S. aureus” value in series [1] was 0.60 µM. Further, the “MIC E. coli” value in series [2] is 1.50 µM.
As for “FLFKLIPKAIKGLIKAFK [AcrAP1a [S4K.H8K.S11K.S15K]] [cDB AMP; Androctonus crassicauda]”, the “MIC S. aureus” value in series [1] is listed as 4.00 µM. The “MIC E. coli” value in series [2] was 8.00 µM.
In the case of “FLFKLIPKAIKGLIKAFK [AcrAP1a, cDB AMP; Androctonus crassicauda]”, the “MIC S. aureus” value in series [1] was 8 µM. In addition, in series [2], the “MIC E. coli” value is on record as 4 µM.
On to “FLFKLIPKAIKGLLKAFK [AcrAP2 [S4K.N8K.S11K.S15K], cDB AMP; Androctonus crassicauda]”, for which the “MIC S. aureus” value in series [1] is on record as 4.00 µM. Further, the “MIC E. coli” value in series [2] was 8.00 µM.
For the sequence “FLFKLIPKAIKGLVKAIRK [AaeAP2 [S4.8.15K; A11K. N19K], cDB AMP; Androctonus aeneas]”, the “MIC S. aureus” value in series [1] was 8.24 µM. Also, in series [2], the “MIC E. coli” value was 10.99 µM.
Regarding “FLFKLIPKAIKKLISKFK [AamAP1 [S4K.H8K.G11.12K.A16K], cDB AMP; Androctonus amoreuxi]”, in series [1], the “MIC S. aureus” value is 5.00 µM. For the same sequence, the “MIC E. coli” value in series [2] is given as 7.50 µM.
“FLFKLIPKVIKGLVKAIRK [AaeAP1 [S4.8.15K; A11K. N19K], cDB AMP; Androctonus aeneas]”: the “MIC S. aureus” value in series [1] was 8.14 µM. In series [2], the “MIC E. coli” value was 10.85 µM.
Turning to “FLFSLIPSAISGLISAFKGRR [Marmelittin, cDB AMP; Mesobuthus martensii]”, the “MIC S. aureus” value in series [1] was 6.48 µM. Further, the “MIC E. coli” value in series [2] is 6.21 µM.
On to “FLGSLFSIGSKLLPGVIKLFQRKKQ [Im-5, cDB AMP; Isometrus maculatus]”, for which, in series [1], the “MIC S. aureus” value is given as 3.75 µM. Also, the “MIC E. coli” value in series [2] is reported as 10.00 µM.
With “FWGALAKGALKLIGSLFSSFSKKD [Pandinin-2 [P14G], cDB AMP; Pandinus imperator]”, the “MIC S. aureus” value in series [1] was 12.50 µM. For the same sequence, the “MIC E. coli” value in series [2] is recorded as 12.50 µM.
For the sequence “GFGMALKLLKKVL [Macropin 1, cDB AMP; Macropis fulvipes]”, the “MIC S. aureus” value in series [1] is on record as 3.70 µM. Besides, in series [2], the “MIC E. coli” value was 3.00 µM.
Take “GFLSILKKVLPKVMAHMK [Melectin, cDB AMP; Melecta albifrons]”: the “MIC S. aureus” value in series [1] was 12.80 µM. For the same sequence, the “MIC E. coli” value in series [2] was 10.37 µM.
For “GLHKVMREVLGYERNSYKKFFLR [Ixosin, cDB AMP; Ixodes sinensis]”, the “MIC S. aureus” value in series [1] is recorded as 1.29 µM. For the same sequence, the “MIC E. coli” value in series [2] is 10.45 µM.
Take “GLLSKFGRLARKLARVIPKV [Pilosulin-2, cDB AMP; Myrmecia pilosula]”: the “MIC S. aureus” value in series [1] is 4.00 µM. Moreover, the “MIC E. coli” value in series [2] is recorded as 1.33 µM.
Turning to “GMASLLAKVLPHVVKLIK [Codesane, cDB AMP; Colletes daviesanus]”, the “MIC S. aureus” value in series [1] is 3.70 µM. Moreover, in series [2], the “MIC E. coli” value was 3.70 µM.
With “GMWSKILGHLIR [HAL-1, cDB AMP; Halictus sexcinctus]”, the “MIC S. aureus” value in series [1] is 7.70 µM. The “MIC E. coli” value in series [2] is 3.80 µM.
Turning to “ILGKIWKIKKLF [IsCT precursor, cDB AMP; Opisthacanthus madagascariensis]”, the “MIC S. aureus” value in series [1] is given as 2.00 µM. The “MIC E. coli” value in series [2] was 2.00 µM.
Take “ILKKIWKPIKKLF [IsCT-P, cDB AMP; Opisthacanthus madagascariensis]”: in series [1], the “MIC S. aureus” value is 1.00 µM. Besides, in series [2], the “MIC E. coli” value was 2.00 µM.
For the sequence “INLKAIAALAKKLLG [Mastoparan-like peptide 12c, cDB AMP; Vespa magnifica]”, in series [1], the “MIC S. aureus” value is recorded as 1.95 µM. In series [2], the “MIC E. coli” value was 3.90 µM.
Turning to “LKWGAILKHIIK [PNG-1/3, cDB AMP; Panurgus calcaratus]”, the “MIC S. aureus” value in series [1] is 11.70 µM. Also, the “MIC E. coli” value in series [2] is reported as 3.70 µM.
For the sequence “LNWGAILKHIIK [PNG-1, cDB AMP; Panurgus calcaratus]”, the “MIC S. aureus” value in series [1] is on record as 10.60 µM. In addition, the “MIC E. coli” value in series [2] was 3.70 µM.
Turning to “LNWGAILKKIIK [PNG-1/9, cDB AMP; Panurgus calcaratus]”, in series [1], the “MIC S. aureus” value was 7.30 µM. In series [2], the “MIC E. coli” value was 4.30 µM.
For the sequence “LNWGALLKHLLK [PNG-1/19, cDB AMP; Panurgus calcaratus]”, the “MIC S. aureus” value in series [1] is 6.70 µM. Also, the “MIC E. coli” value in series [2] was 3.80 µM.
Turning to “LNWGKILKHIIK [PNG-1/6, cDB AMP; Panurgus calcaratus]”, in series [1], the “MIC S. aureus” value is given as 8.70 µM. Besides, the “MIC E. coli” value in series [2] is on record as 4.00 µM.
Regarding “LNWKAILKHIIK [PNG-1/5, cDB AMP; Panurgus calcaratus]”, in series [1], the “MIC S. aureus” value is 5.30 µM. Further, in series [2], the “MIC E. coli” value was 2.30 µM.
With “PFKLSLHL [Jellein-1, cDB AMP; Apis mellifera]”, the “MIC S. aureus” value in series [1] is 10.48 µM. For the same sequence, the “MIC E. coli” value in series [2] was 2.62 µM.
As for “QCRRLCYKQRCVTYCRGR [Gomesin c(1-18)[Gln1], cDB AMP; Acanthoscurria gomesiana]”, the “MIC S. aureus” value in series [1] was 1.44 µM. The “MIC E. coli” value in series [2] is 0.48 µM.
With “RRWCFRVCYKGFCYRKCR [Polyphemusin-2, cDB AMP; Limulus polyphemus]”, the “MIC S. aureus” value in series [1] was 5.14 µM. The “MIC E. coli” value in series [2] is reported as 3.87 µM.
Take “RRWCFRVCYRGFCYRKCR [Polyphemusin-1, cDB AMP; Limulus polyphemus]”: the “MIC S. aureus” value in series [1] is 0.3 µM. For the same sequence, the “MIC E. coli” value in series [2] is on record as 0.9 µM.
Consider “SIGRRGGYCAGIIKQTCTCYR [Longicin (53-73), cDB AMP; Haemaphysalis longicornis]”, for which the “MIC S. aureus” value in series [1] is 2.00 µM. For the same sequence, in series [2], the “MIC E. coli” value is recorded as 2.00 µM.
As to “VNWKKILGKIIKVAK [Lasioglossin LL-II, cDB AMP; Lasioglossum laticeps]”, the “MIC S. aureus” value in series [1] is listed as 9.00 µM. The “MIC E. coli” value in series [2] is reported as 1.40 µM.
Consider “VNWKKILGKIIKVVK [Lasioglossin LL-III, cDB AMP; Lasioglossum laticeps]”, for which the “MIC S. aureus” value in series [1] is 3.90 µM. The “MIC E. coli” value in series [2] is listed as 1.40 µM.
As to “VNWKKVLGKIIKVAK [Lasioglossin LL-I, cDB AMP; Lasioglossum laticeps]”, the “MIC S. aureus” value in series [1] is on record as 14.3 µM. In addition, the “MIC E. coli” value in series [2] was 1.70 µM.
Take “VWLSALKFIGKHLAKHQLSKL [Lycosin-II, cDB AMP; Lycosa singoriensis]”: in series [1], the “MIC S. aureus” value is given as 3.10 µM. The “MIC E. coli” value in series [2] was 12.50 µM.
